Assay: xn = mol fraction of the nth substance listed
Settings: 101 kPa, Liquid

CCCCn1cc[n+](C)c1.N#C[S-] [1-butyl-3-methylimidazolium thiocyanate] + CCCCCCCCCCO
Settings	mass density [kg/m3]	viscosity [mPa·s]
298.15 K, x1 = 0.0747	843.95	13.07
298.15 K, x1 = 0.1621	864.67	15.5
298.15 K, x1 = 0.2537	886.57	18.67
298.15 K, x1 = 0.3512	910.03	22.48
298.15 K, x1 = 0.4924	944.3	28.36
298.15 K, x1 = 0.5922	968.81	32.87
298.15 K, x1 = 0.6659	987.05	36.09
298.15 K, x1 = 0.7576	1009.83	40
298.15 K, x1 = 0.8692	1037.62	45.01
298.15 K, x1 = 0.9587	1059.8	49.31
298.15 K, x1 = 1	1069.79	51.74
308.15 K, x1 = 0.0747	837.19	9.168
308.15 K, x1 = 0.1621	857.99	10.96
308.15 K, x1 = 0.2537	879.95	13.08
308.15 K, x1 = 0.3512	903.51	15.62
308.15 K, x1 = 0.4924	938.02	19.52
308.15 K, x1 = 0.5922	962.63	22.29
308.15 K, x1 = 0.6659	981.01	24.5
308.15 K, x1 = 0.7576	1003.83	27.12
308.15 K, x1 = 0.8692	1031.69	30.46
308.15 K, x1 = 0.9587	1053.86	33.3
308.15 K, x1 = 1	1063.89	34.87
318.15 K, x1 = 0.0747	830.4	6.582
318.15 K, x1 = 0.1621	851.35	7.964
318.15 K, x1 = 0.2537	873.42	9.541
318.15 K, x1 = 0.3512	897.08	11.39
318.15 K, x1 = 0.4924	931.78	14.06
318.15 K, x1 = 0.5922	956.5	16.04
318.15 K, x1 = 0.6659	974.94	17.59
318.15 K, x1 = 0.7576	997.87	19.4
318.15 K, x1 = 0.8692	1025.8	21.56
318.15 K, x1 = 0.9587	1048.02	23.3
318.15 K, x1 = 1	1058.02	24.19
328.15 K, x1 = 0.0747	823.59	4.88
328.15 K, x1 = 0.1621	844.7	5.959
328.15 K, x1 = 0.2537	866.89	7.162
328.15 K, x1 = 0.3512	890.79	8.553
328.15 K, x1 = 0.4924	925.54	10.62
328.15 K, x1 = 0.5922	950.4	11.98
328.15 K, x1 = 0.6659	968.92	12.98
328.15 K, x1 = 0.7576	991.96	14.04
328.15 K, x1 = 0.8692	1019.98	15.15
328.15 K, x1 = 0.9587	1042.2	16.1
328.15 K, x1 = 1	1052.19	16.7
338.15 K, x1 = 0.0747	816.7	3.741
338.15 K, x1 = 0.1621	838	4.567
338.15 K, x1 = 0.2537	860.36	5.526
338.15 K, x1 = 0.3512	884.37	6.586
338.15 K, x1 = 0.4924	919.35	8.183
338.15 K, x1 = 0.5922	944.32	9.243
338.15 K, x1 = 0.6659	962.91	9.998
338.15 K, x1 = 0.7576	986.05	10.76
338.15 K, x1 = 0.8692	1014.18	11.46
338.15 K, x1 = 0.9587	1036.43	12.18
338.15 K, x1 = 1	1046.43	12.73
348.15 K, x1 = 0.0747	809.76	2.909
348.15 K, x1 = 0.1621	831.23	3.578
348.15 K, x1 = 0.2537	853.79	4.411
348.15 K, x1 = 0.3512	877.97	5.195
348.15 K, x1 = 0.4924	913.13	6.455
348.15 K, x1 = 0.5922	938.26	7.278
348.15 K, x1 = 0.6659	956.95	7.875
348.15 K, x1 = 0.7576	980.21	8.487
348.15 K, x1 = 0.8692	1008.43	9.047
348.15 K, x1 = 0.9587	1030.7	9.624
348.15 K, x1 = 1	1040.7	9.98
